Consider 4 molecules from DBAASP.

Among the test systems are Escherichia coli HB101; Escherichia coli MC1041; Escherichia coli JJ2489; Escherichia coli J2210; Escherichia coli JW0013; Escherichia coli; Escherichia coli IS218#; Shigella dysenteriae; Escherichia coli IS37#; Escherichia coli IS117#.
Test in all cases: ≥ marks a high value that may be exact or a test limit, other limits are often not marked, values filed in µg/mL are converted to µM
The subject of experiment [1] is Escherichia coli ATCC 25922.
Experiment [2] relates to Staphylococcus aureus NCTC 12981.
Experiment [3] deals with Pseudomonas aeruginosa KCTC 1637.
Experiment [4] relates to Staphylococcus epidermidis KCTC 1917.
Experiment [5] deals with Escherichia coli KCTC 1682.
Experiment [6] relates to Staphylococcus aureus KCTC 1621.
Experiment [7] has as its system Escherichia coli NCTC 10418.
Experiment [8] deals with Staphylococcus aureus USA 100.
Experiment [9] relates to Salmonella enterica subsp. enterica serovar Enteritidis MH91989.
Experiment [10] relates to Salmonella enterica subsp. enterica serovar Infantis.
Experiment [11] deals with Salmonella enterica serovar Tennessee.
In experiment [12] the test system is Salmonella typhimurium SL1344.
The subject of experiment [13] is Escherichia coli JW0368 ΔsbmA.
Experiment [14] deals with Salmonella enterica subsp. enterica serovar Newport.
Experiment [15] concerns Escherichia coli JW2778 ΔygdD.
Experiment [16] concerns Staphylococcus aureus IS37#.
The test system of experiment [17] is Enterobacter cloacae ATCC 13047.
Experiment [18] has as its system Pseudomonas aeruginosa CMCCB 1010.
For experiment [19], the system named is Candida albicans NCYC 1467.
The test system of experiment [20] is Klebsiella pneumoniae IS59#.
Experiment [21] deals with Staphylococcus aureus NCTC 10788.
Experiment [22] deals with Pseudomonas aeruginosa IS350#.
For experiment [23], the system named is Klebsiella pneumoniae ATCC 700603.
Experiment [24] concerns Staphylococcus aureus ATCC 25923.
Experiment [25] deals with Candida parapsilosis ATCC 22019.
Experiment [26] deals with Enterococcus faecalis ATCC 29212.
In experiment [27] the test system is Candida albicans ATCC 2002.
Experiment [28] has as its system Pseudomonas aeruginosa ATCC 27853.
For experiment [29], the system named is Staphylococcus aureus IS10#.
Experiment [30] concerns Candida albicans ATCC 90028.

Structures are written as SMILES. Values after ≈ are worked out from the molar mass of the structure shown. Values joined by “and” are separate entries in the source; they are usually repeats but may differ in a detail not shown here. Equal values may be shown once.

As for `CC[C@H](C)[C@H](NC(=O)[C@H](CCCN=C(N)N)NC(=O)[C@@H](N)CCCN=C(N)N)C(=O)N[C@@H](CCCN=C(N)N)C(=O)N1CCC[C@H]1C(=O)N[C@@H](CCCN=C(N)N)C(=O)N1CCC[C@H]1C(=O)N1CCC[C@H]1C(=O)N[C@@H](CCCN=C(N)N)C(=O)N[C@@H](CC(C)C)C(=O)N1CCC[C@H]1C(=O)N[C@@H](CCCN=C(N)N)C(=O)N1CCC[C@H]1C(=O)N[C@@H](CCCN=C(N)N)C(=O)N1CCC[C@H]1C(=O)N[C@@H](CS)C(=O)O` [RRIRPRPPRLPRPRPC], the MIC (in the experiment on Escherichia coli HB101; in experiment [1]) was 11.3 µM (≈ 22.9 µg/mL) in each case.
As to `NC(=O)[C@H](CCCN=C(N)N)NC(=O)[C@H](Cc1c[nH]c2ccccc12)NC(=O)[C@H](CCCN=C(N)N)NC(=O)[C@@H](N)Cc1c[nH]c2ccccc12` [WRWR], the MIC (as a rule, the smallest concentration in the dilution series that meets the test's criterion for growth inhibition) was at least 182 µM in experiment [2]; at least 45.5 µM in experiment [3]; 11.4 µM (≈ 7.99 µg/mL) in [4]; at least 45.5 µM in experiment [5]; at least 45.5 µM in experiment [6]; at least 182 µM in experiment [7]. This molecule came in with a minimal inhibitory concentration (MIC) in experiment [8] of at least 50 µM.
In the case of `CC[C@H](C)[C@H](NC(=O)[C@@H]1CCCN1C(=O)[C@H](CCCN=C(N)N)NC(=O)[C@@H]1CCCN1C(=O)[C@@H]1CCCN1C(=O)[C@@H](NC(=O)[C@@H]1CCCN1C(=O)[C@H](CCCN=C(N)N)NC(=O)[C@@H]1CCCN1C(=O)[C@H](CC(C)C)NC(=O)[C@H](Cc1ccc(O)cc1)NC(=O)[C@H](CO)NC(=O)CNC(=O)[C@H](CCCCN)NC(=O)[C@H](CC(=O)O)NC(=O)[C@@H](N)C(C)C)[C@@H](C)O)C(=O)N[C@@H](Cc1ccc(O)cc1)C(=O)N[C@@H](CC(N)=O)C(=O)N[C@@H](CCCN=C(N)N)C(=O)N[C@@H](CC(N)=O)C(=O)O` [VDKGSYLPRPTPPRPIYNRN], the MIC was 0.416 µM (≈ 0.974 µg/mL) against Escherichia coli MC1041; 0.6 µM (≈ 1.4 µg/mL) with Escherichia coli JJ2489; 1.2 µM (≈ 2.81 µg/mL) in [9]; 0.786 µM (≈ 1.84 µg/mL) against Escherichia coli J2210; 0.6 µM (≈ 1.4 µg/mL) in experiment [10]; 0.15 µM (≈ 0.351 µg/mL) against Escherichia coli JW0013. Besides, the MIC in [11] was 0.6 µM (≈ 1.4 µg/mL); against Escherichia coli it was > 0.416 µM and 0.6 µM; in experiment [12] it was 1.2 µM (≈ 2.81 µg/mL); in [13], 2.4 µM (≈ 5.62 µg/mL); in [14], 0.416 µM (≈ 0.974 µg/mL); in experiment [15], 0.6 µM (≈ 1.4 µg/mL).
For the molecule `CC[C@H](C)[C@H](NC(=O)CNC(=O)[C@H](CO)NC(=O)[C@H](CC(C)C)NC(=O)[C@H](CC(C)C)NC(=O)CN)C(=O)N[C@@H](CC(C)C)C(=O)NCC(=O)N[C@@H](C)C(=O)NCC(=O)N[C@@H](CCCCN)C(=O)N[C@@H](CCCCN)C(=O)N[C@H](C(=O)N[C@H](C(=O)N[C@H]1CSSC[C@@H](C(=O)O)NC(=O)[C@H](CC(C)C)NC(=O)CNC(=O)[C@H](CO)NC(=O)[C@H](CC(C)C)NC(=O)CNC1=O)C(C)C)[C@@H](C)CC` [GLLSGILGAGKKIVCGLSGLC], the minimum inhibitory concentration (MIC) amounted to 10.2 µM (≈ 20 µg/mL) in experiment [16]; 5.1 µM (≈ 9.99 µg/mL) in experiment [17]; 1.28 µM (≈ 2.5 µg/mL) in experiment [18]; 32 µM (≈ 62.6 µg/mL) in experiment [19]; 5.1 µM (≈ 9.99 µg/mL) in [20]; 32 µM (≈ 62.6 µg/mL) in experiment [21]. The MIC in [22] turned out to be 5.1 µM (≈ 9.99 µg/mL); in the experiment on Escherichia coli IS218# it was 2.55 µM (≈ 4.99 µg/mL); in experiment [23], 1.28 µM (≈ 2.5 µg/mL); in experiment [24], 2.55 µM (≈ 4.99 µg/mL); against Shigella dysenteriae, 2.55 µM (≈ 4.99 µg/mL); in the experiment with Escherichia coli IS37#, 2.55 µM (≈ 4.99 µg/mL). In addition, the MIC in experiment [25] was 1.28 µM (≈ 2.5 µg/mL); in [7], at least 64 µM; in experiment [26], 5.1 µM (≈ 9.99 µg/mL); in experiment [27] it was 0.51 µM (≈ 0.999 µg/mL); in the experiment with Escherichia coli IS117#, 5.1 µM (≈ 9.99 µg/mL); in experiment [28], 2.55 µM (≈ 4.99 µg/mL). Further, the MIC in experiment [29] worked out at 10.2 µM (≈ 20 µg/mL); in [30] it was 2.55 µM (≈ 4.99 µg/mL); in experiment [1], 5.1 µM (≈ 9.99 µg/mL).
